Like-named read-outs stand apart in the source and are kept apart here.
Experiments:
[1] = Pharmacokinetic study of 5 compounds in rat plasma after oral administration of Zuogui Pill extract (HPLC-MS/MS, noncompartmental analysis); assay type: in vivo, Female Sprague-Dawley rats; settings: oral Zuogui Pill extract 1.5 mL/100 g; for Cmax / Tmax / half-life / CL/F / MRT last / MRT inf: female, Sprague-Dawley, rat, po, 1.5 mL/100 g; for Cmax / Tmax / half-life / AUC0–t / AUC0–∞ / t 1/2: n = 6; for CL/F: n = 6, read-out: CL_F_obs (converted); for MRT last: n = 6, read-out: MRT0–t; for MRT inf: n = 6, read-out: MRT0–∞
Description: Female Sprague-Dawley rats (180–220 g) were purchased from Shanghai Laboratory Animal Centre (Shanghai, China). The rats were maintained in a standard environment (22 ± 1°C, 60 ± 10% relative humidity, and a 12 h light/dark cycle) for one week to acclimate and fed water and food ad libitum. Twenty-four rats were divided randomly into […] and treated through ovary enucleation to establish the model of osteoporosis. Ten weeks after operation, osteoporosis models of kidney-yang-deficiency and kidney-yin-deficiency were established by intramuscular injection of hydrocortisone (25 mg/kg) and intragastric administration of thyroxine suspension (160 mg/kg) for 10 days, respectively. The femur of two rats from each group was then stained with hematoxylin and eosin (H&E) to assess histopathological change. Also, the validation of osteoporosis kidney-yang-deficiency and kidney-yin-deficiency models was judged by detecting the level of cyclic adenosine monophosphate (cAMP) and cyclic guanosine monophosphate (cGMP) in rat plasma. Laboratory Animal Management and Ethics Committee of Zhejiang Chinese Medical University approved all animal treatments (ZSLL-2014-48).
One hundred microliters of plasma was mixed with 100 μL of the IS solution, followed by 700 μL of methanol:acetonitrile (1 : 1). After 2 min of vortex mixing, the mixture was spun for 15 min at 8000 rpm and 4°C. The supernatants were collected and dried in a high-purity N2 environment. The residues were redissolved in 100 μL methanol and centrifuged for 15 min at 13000 rpm and 4°C. Finally, an aliquot of 10 μL supernatants was used to conduct the analysis.
Four groups of rats were orally administered with Zuogui Pill extract at a dose of 1.5 mL/100 g. Then, 0.3 mL blood samples were collected from orbital veins at 0, 0.08, 0.17, 0.25, 0.5, 1, 2, 4, 6, 8, 12, and 24 h after administration, placed in an anticoagulant tube, and centrifuged for 15 min at 5000 rpm and 4°C. The plasma was prepared and stored at −20°C until analysis.
Phoenix WinNonlin 6.4 software was used to estimate pharmacokinetic parameters using noncompartmental analysis. Furthermore, SPSS 26 software was used to compute comparisons of the pharmacokinetic data among the four groups according to a one-way ANOVA. The results are presented as mean ± SD.

[2] = Stability of analytes in rat plasma (QC samples) under storage conditions; settings: n = 5; for Stability, Room temperature for 4 h, Mean: 25°C; for Stability, Three freeze-thaw cycles, Mean: −20°C to 25°C
Description: QC samples at three levels using five replicates were used to evaluate the stability under the following conditions: 4 h at room temperature (25°C), 24 h in autosampler (4°C), and three freeze-thaw cycles (−20°C to 25°C).

[3] = osteoporosis rats (ovariectomized)
[4] = osteoporotic rats with kidney-yang-deficiency
[5] = osteoporotic rats with kidney-yin-deficiency
[6] = high QC (800, 16000, 3200, 400, 40 ng/mL in the same order)
[7] = low QC (2, 40, 8, 1, 0.1 ng/mL for chlorogenic acid, loganin, morroniside, aucubin, protocatechuic aldehyde)
[8] = middle QC (40, 800, 160, 20, 2 ng/mL in the same order)

Compound: OCC1=C[C@@H](O)[C@@H]2C=CO[C@@H](O[C@@H]3O[C@H](CO)[C@@H](O)[C@H](O)[C@H]3O)[C@H]12 [Aucubin, aucubin]
- Cmax ([1]; normal rats): 84.4 ± 32.2 ng/mL
- Tmax ([1]; normal rats): 0.38 ± 0.14 h
- half-life ([1]; normal rats): 5.97 ± 2.89 h
- CL/F ([1]; normal rats): 22.6 mL/min/kg
- MRT last ([1]; normal rats): 5.38 ± 2.01 h
- MRT inf ([1]; normal rats): 8.58 ± 2.71 h
- Cmax [1, 3]: 103 ± 23.6 ng/mL
- Tmax [1, 3]: 0.17 h
- half-life [1, 3]: 3.67 ± 0.78 h
- CL/F [1, 3]: 26.5 mL/min/kg
- MRT last [1, 3]: 3.06 ± 0.12 h
- MRT inf [1, 3]: 5.62 ± 1.09 h
- Cmax [1, 4]: 96 ± 24.2 ng/mL
- Tmax [1, 4]: 0.25 h
- half-life [1, 4]: 7.4 ± 1.68 h
- CL/F [1, 4]: 38.8 mL/min/kg
- MRT last [1, 4]: 2.95 ± 0.38 h
- MRT inf [1, 4]: 11.7 ± 1.31 h
- Cmax [1, 5]: 181 ± 30.7 ng/mL
- Tmax [1, 5]: 0.25 h
- half-life [1, 5]: 8.68 ± 2.92 h
- CL/F [1, 5]: 16 mL/min/kg
- MRT last [1, 5]: 7.32 ± 1.92 h
- MRT inf [1, 5]: 14.1 ± 5.85 h
- AUC0–t ([1]; normal rats): 170.50 ± 64.82 h∗ng/mL
- AUC0–∞ ([1]; normal rats): 204.69 ± 68.61 h∗ng/mL
- AUC0–t [1, 3]: 116.40 ± 11.00 h∗ng/mL
- AUC0–∞ [1, 3]: 155.64 ± 24.54 h∗ng/mL
- AUC0–t [1, 4]: 48.33 ± 14.05^∗∗ h∗ng/mL
- AUC0–∞ [1, 4]: 111.33 ± 29.94 h∗ng/mL
- AUC0–t [1, 5]: 201.40 ± 32.43^∗∗ h∗ng/mL
- AUC0–∞ [1, 5]: 272.67 ± 70.63^∗∗ h∗ng/mL
- Stability, Room temperature for 4 h, Mean [2, 6]: 92.8%
- Stability, Room temperature for 4 h, Mean [2, 7]: 89.8%
- Stability, Room temperature for 4 h, Mean [2, 8]: 91.3%
- Stability, Autosampler at 4°C for 24 h, Mean [2, 6]: 90.2%
- Stability, Autosampler at 4°C for 24 h, Mean [2, 7]: 88.6%
- Stability, Autosampler at 4°C for 24 h, Mean [2, 8]: 92.5%
- Stability, Three freeze-thaw cycles, Mean [2, 6]: 89.1%
- Stability, Three freeze-thaw cycles, Mean [2, 7]: 84.2%
- Stability, Three freeze-thaw cycles, Mean [2, 8]: 86.9%

Compound: O=C(/C=C/c1ccc(O)c(O)c1)O[C@@H]1C[C@](O)(C(=O)O)C[C@@H](O)[C@H]1O [Chlorogenic acid, chlorogenic acid]
- Cmax ([1]; normal rats): 346 ± 64 ng/mL
- CL/F ([1]; normal rats): 15.2 mL/min/kg
- MRT last ([1]; normal rats): 5.46 ± 0.48 h
- MRT inf ([1]; normal rats): 8.17 ± 1.46 h
- Cmax [1, 3]: 279 ± 56.3 ng/mL
- Tmax [1, 3]: 0.26 ± 0.02 h
- half-life [1, 3]: 6.38 ± 1.96 h
- CL/F [1, 3]: 17.3 mL/min/kg
- MRT last [1, 3]: 6.78 ± 0.68 h
- MRT inf [1, 3]: 9.72 ± 2.61 h
- Cmax [1, 4]: 430 ± 98.5 ng/mL
- CL/F [1, 4]: 29.5 mL/min/kg
- MRT last [1, 4]: 4.52 ± 1.46 h
- MRT inf [1, 4]: 6.56 ± 2.64 h
- Cmax [1, 5]: 354 ± 83.8 ng/mL
- half-life [1, 5]: 6.61 ± 3.84 h
- CL/F [1, 5]: 37.1 mL/min/kg
- MRT last [1, 5]: 3.03 ± 0.38 h
- MRT inf [1, 5]: 4.1 ± 1.02 h
- AUC0–t ([1]; normal rats): 497.98 ± 34.72^∗ h∗ng/mL
- AUC0–∞ ([1]; normal rats): 546.26 ± 38.80 h∗ng/mL
- t 1/2 ([1]; normal rats): 8.17 ± 1.79 h
- AUC0–t [1, 3]: 435.76 ± 59.78 h∗ng/mL
- AUC0–∞ [1, 3]: 489.67 ± 77.69 h∗ng/mL
- AUC0–t [1, 4]: 263.13 ± 40.25^∗∗ h∗ng/mL
- AUC0–∞ [1, 4]: 284.31 ± 33.34^∗∗ h∗ng/mL
- t 1/2 [1, 4]: 5.41 ± 1.84 h
- AUC0–t [1, 5]: 218.55 ± 23.29^∗∗ h∗ng/mL
- AUC0–∞ [1, 5]: 225.89 ± 25.03^∗∗ h∗ng/mL
- Stability, Room temperature for 4 h, Mean [2, 6]: 85.7%
- Stability, Room temperature for 4 h, Mean [2, 8]: 85.9%
- Stability, Autosampler at 4°C for 24 h, Mean [2, 6]: 87.3%
- Stability, Autosampler at 4°C for 24 h, Mean [2, 8]: 93.7%
- Stability, Three freeze-thaw cycles, Mean [2, 6]: 80.9%
- Stability, Three freeze-thaw cycles, Mean [2, 8]: 89.3%

Compound: COC(=O)C1=CO[C@@H](O[C@@H]2O[C@H](CO)[C@@H](O)[C@H](O)[C@H]2O)[C@@H]2[C@@H](C)[C@@H](O)C[C@H]12 [Loganin, loganin]
- Cmax ([1]; normal rats): 13500 ± 2030 ng/mL
- Tmax ([1]; normal rats): 0.25 h
- half-life ([1]; normal rats): 4.51 ± 0.45 h
- CL/F ([1]; normal rats): 6.03 mL/min/kg
- MRT last ([1]; normal rats): 4.58 ± 0.47 h
- MRT inf ([1]; normal rats): 5.1 ± 0.41 h
- Cmax [1, 3]: 8380 ± 1120 ng/mL
- Tmax [1, 3]: 0.25 h
- half-life [1, 3]: 2.74 ± 0.96 h
- CL/F [1, 3]: 7.67 mL/min/kg
- MRT last [1, 3]: 4.91 ± 1.29 h
- MRT inf [1, 3]: 5.02 ± 1.34 h
- Cmax [1, 4]: 14.7 ± 1.38 ng/mL
- Tmax [1, 4]: 0.21 ± 0.05 h
- half-life [1, 4]: 5.62 ± 1.63 h
- CL/F [1, 4]: 4280 mL/min/kg
- MRT last [1, 4]: 5.5 ± 0.67 h
- MRT inf [1, 4]: 6.62 ± 0.49 h
- Cmax [1, 5]: 16000 ± 2790 ng/mL
- Tmax [1, 5]: 0.25 h
- half-life [1, 5]: 3.75 ± 0.7 h
- CL/F [1, 5]: 2.94 mL/min/kg
- MRT last [1, 5]: 6.51 ± 0.91 h
- MRT inf [1, 5]: 6.92 ± 0.98 h
- AUC0–t ([1]; normal rats): 20134.29 ± 3958.79 h∗ng/mL
- AUC0–∞ ([1]; normal rats): 20523.97 ± 3947.05 h∗ng/mL
- AUC0–t [1, 3]: 17912.12 ± 6898.16 h∗ng/mL
- AUC0–∞ [1, 3]: 17998.56 ± 6945.75 h∗ng/mL
- AUC0–t [1, 5]: 41028.61 ± 6356.26^∗∗ h∗ng/mL
- AUC0–∞ [1, 5]: 41727.10 ± 6203.34^∗∗ h∗ng/mL
- Stability, Room temperature for 4 h, Mean [2, 6]: 85.6%
- Stability, Room temperature for 4 h, Mean [2, 7]: 88.3%
- Stability, Room temperature for 4 h, Mean [2, 8]: 87.4%
- Stability, Autosampler at 4°C for 24 h, Mean [2, 6]: 84.4%
- Stability, Autosampler at 4°C for 24 h, Mean [2, 7]: 94.6%
- Stability, Autosampler at 4°C for 24 h, Mean [2, 8]: 85.8%
- Stability, Three freeze-thaw cycles, Mean [2, 6]: 92.4%
- Stability, Three freeze-thaw cycles, Mean [2, 7]: 86.4%
- Stability, Three freeze-thaw cycles, Mean [2, 8]: 89.5%

Source: paper PMC10045483, “Comparative Pharmacokinetic Study of 5 Active Ingredients after Oral Administration of Zuogui Pill in Osteoporotic Rats with Different Syndrome Types” (International Journal of Analytical Chemistry, 2023)
